Results from patent publication US5614504A, “Method of making inosine monophosphate derivatives and immunopotentiating uses thereof” (The University of South Florida, priority 1995, dated 1997).

How the values were obtained:
[1] = in vitro; type: in vitro ADME, Crotalus atrox; details: rattlesnake, pH 7.3; 0.02 units 5'-nucleotidase, 37° C., 10 minutes; four experiments; read-out: Hydrolysis (%)
Description: (§1) Nucleotide samples (40-60 nmoles) were incubated at 37° C. for 10 minutes with 0.02 units 5'-nucleotidase in a total volume of 100 μl containing […] HEPES, pH 7.3 and […] MgCl2. […] Phosphate was determined by the absorbance of 820 nm. Blanks consisting of nucleotide but no enzyme were tested in parallel to correct for non-enzymatic hydrolysis.

[2] = system: 5'-nucleotidase (from Crotalus atrox venom); experiment: in vitro; type: in vitro ADME; details: in words
Description: as §1

[3] = system: human peripheral blood lymphocytes (HPBL); experiment: Response of normal HPBL to PHA (tritiated thymidine incorporation); type: cell-based; details: 0.1-100 μg/ml; FIG. 1
Description: (§2) In vitro: Both human peripheral blood lymphocytes (HPBL) and mouse spleen lymphocytes (MSL) were employed. […] For HPBL transformation, PHA and PWM were used at 0.5 μg/ml. For MSL transformation, Con A was used at 0.5 μg/ml, phytohemagglutinin (PHA, Murex Diagnostics, Atlanta, Ga.) at 0.5 μg/ml and lipopolysaccharide endotoxin (LPS, Sigma, St. Louis, Mo.) at 10 μg/ml.
(§3) They were cultured in microwell plates at 1.5×10^6 cells/ml of minimal essential media (MEM, Gibco Labs, Grand Island, N.Y.) with 5% fetal calf serum (FCS, Hyclone Labs, Logan, Utah) and tested for their proliferative response to mitogens as measured by incorporation of (^3 H) tritiated thymidine (New England Nuclear, Wilmington Del., […]; 2.5 μCi/ml) during a terminal pulse followed by liquid scintillation spectrometry.

[4] = system: mouse spleen lymphocytes (MSL); experiment: Mouse spleen lymphocyte proliferation to Con A; type: cell-based; details: 0.1, 1, 10, 100 μg/ml; Con A 0.5 μg/ml
Description: as §2, §3

[5] = system: spleen plaque antibody forming cells (PFC); experiment: In vivo stimulation of PFC response to SRBC; parameters: species or system mice; details: for effect on PFC response: 50 mg/kg of body weight ip with SRBC, PFC five days later; for dose of optimal stimulation of PFC response: intraperitoneal
Description: Five days later, suspensions of spleen cells were prepared and their viability was determined by trypan blue exclusion test. Cells were suspended at 3×10^6 /ml. 0.2 ml of spleen cell suspension was mixed with 0.8 ml of 0.7% agarose and 0.2 ml of freshly washed SRBC (at 6×10^5 /ml). The mixture was immediately poured into the plate and allowed to solidify. After 60 minutes of incubation at 37° C. in a humid atmosphere of 5% CO2 in the air, the plate was flooded with 1 ml of guinea-pig complement diluted 1:5 with Hank's balanced saline. Hemolytic plaques were counted with an inverted scope using 4× magnification.
Spleen plaque antibody forming cells (PFC) were measured at the end of the five days.

[6] = system: influenza virus; type: in vivo, NMRI mice; details: Squalane alone
[7] = in man; cited from earlier work

Compound | metabolised at 10 min [1] [%] | resistance to hydrolysis by 5'-nucleotidase [2] | relative activity on HPBL response to PHA [3] | proliferative responses of MSL to Con A [4] | effect on PFC response [5] | dose of optimal stimulation of PFC response [5] | effect on survival after influenza challenge [6] | half-life [7]
Nc1ncnc2c1ncn2[C@@H]1O[C@H](COP(=O)(O)O)[C@@H](O)[C@H]1O [Adenosine MP, adenosine-5'-monophosphate, reference compound] | 86 | – | – | – | – | – | – | –
N=C(N)NCCC[C@H](NP(=O)(O)OC[C@H]1O[C@@H](n2cnc3c(=O)[nH]cnc32)[C@H](O)[C@@H]1O)C(=O)O [Arg-IMP, Arginine-5'-inosine-monophosphate] | 12 | moderate | more active | stimulated the proliferative responses | significantly stimulated | 50 mg/kg of body weight | – | –
CCOP(=O)(O)OC[C@H]1O[C@@H](n2cnc3c(=O)[nH]cnc32)[C@H](O)[C@@H]1O [E-IMP, Ethyl-5'-inosine-monophosphate] | 2.9 | extremely resistant | more active | stimulated the proliferative responses | – | – | – | –
CC(CCCC(C)(C)O)NP(=O)(O)OC[C@H]1O[C@@H](n2cnc3c(=O)[nH]cnc32)[C@H](O)[C@@H]1O (stereo partly shown) [Ha-IMP, (Heptamin-1-ol)-5'-inosine-monophosphate] | 76 | mild | low | stimulated the proliferative responses | significantly stimulated | 50 mg/kg of body weight | – | –
CC(C)CCCC(C)CCCC(C)CCCCC(C)CCCC(C)CCCC(C)C (stereo not shown) [Squalane, reference compound] | – | – | – | – | – | – | no effect | –
isoprinosine | – | – | – | – | – | – | – | less than four
